Assay [1] concerns normal hepatocyte cell line (QSG-7701). Put plainly: MTT cytotoxic assay on normal hepatocytes. In kind it is cell-based, human. The note with it: Homo sapiens, QSG7701, 48 h, mean value ± SD. The procedure:
(§1) Three human hepatocarcinoma cell lines (SMMC-7721, HepG2 and Hep3B) and normal hepatocyte cell line (QSG-7701) were maintained in Dulbecco Modified Eagle Medium (DMEM) containing 4.0 mM L-Glutamine and 4500 mg/l Glucose supplemented with 10% (v/v) foetalbovine serum (FBS) and 100 unites/mL penicillin/streptomycin at 37 °C in humidified atmosphere of 5% CO2 and 95% air.
(§2) The in vitro cytotoxic activities of the carbazole derivatives of DHA were evaluated against three human hepatocarcinoma cell lines (SMMC-7721, HepG2 and Hep3B) and a normal human hepatocyte cell line (QSG-7701) via the MTT colorimetric method. Briefly, SMMC-7721, HepG2, Hep3B and QSG-7701 cells were harvested at log phase of growth and seeded in 96-well plates (100 µL/well at a density of 2 × 10^5 cells/mL). After 24 h incubation at 37 °C and 5% CO2 to allow cell attachment, cultures were exposed to various concentrations of the isolated compounds for 48 h. Finally, MTT solution (2.5 mg/mL in PBS) was added (40 µL/well). Plates were further incubated for 4 h at 37 °C, and the formazan crystals formed were dissolved by adding 150 µL/well of DMSO. Absorption at 570 nm was measured with an ELISA plate reader. […] Doxorubicin was co-assayed as positive control.

Assay [2] deals with three human hepatocarcinoma cell lines (SMMC-7721, HepG2 and Hep3B). The assay can be described thus: MTT cytotoxic assay, statements over the three cancer cell lines. Particulars: Homo sapiens; at least one of SMMC-7721, HepG2, Hep3B; read-out: IC50 against at least one hepatocarcinoma cell line. In kind it is cell-based. On the procedure:
as §1, §2
(In general: Tetrazolium dyes change colour on reduction, which living cells bring about.)

A further assay deals with Hep3B. Put plainly: MTT cytotoxic assay. In kind it is cell-based, human. The note with it: Homo sapiens, Hep3B, 48 h, mean value ± SD. On the procedure:
as §1, §2

The next assay concerns HepG2. Put plainly: MTT cytotoxic assay. The assay is classed as cell-based, human. Particulars: Homo sapiens, HepG2, 48 h, mean value ± SD. The procedure: as §1, §2
The subject of another assay is SMMC-7721. Put plainly: MTT cytotoxic assay. In kind it is cell-based, human. The note with it: Homo sapiens, SMMC-7721, 48 h, mean value ± SD. On the procedure:
as §1, §2

The target in assay [3] is T1, MEK1 (Homo sapiens, UniProt Q02750).
T1 construct: purchased Carna Biosciences, Japan
T1 sequence (Q02750 whole entry): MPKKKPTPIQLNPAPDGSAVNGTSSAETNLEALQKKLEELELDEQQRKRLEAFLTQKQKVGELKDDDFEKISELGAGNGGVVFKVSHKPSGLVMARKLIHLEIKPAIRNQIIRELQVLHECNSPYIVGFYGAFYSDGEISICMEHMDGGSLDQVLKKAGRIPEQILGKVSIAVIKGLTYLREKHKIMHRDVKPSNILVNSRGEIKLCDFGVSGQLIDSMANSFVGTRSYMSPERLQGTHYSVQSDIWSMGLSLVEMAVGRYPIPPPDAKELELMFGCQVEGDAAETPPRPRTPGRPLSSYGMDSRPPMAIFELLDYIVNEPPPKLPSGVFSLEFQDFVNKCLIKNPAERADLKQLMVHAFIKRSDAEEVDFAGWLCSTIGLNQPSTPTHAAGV
Put plainly: Preliminary screening of in vitro MEK1 inhibitory activity. The assay is classed as biochemical.

Assay [4] has as its target T1, MEK1. The assay can be described thus: In vitro MEK1 inhibition assay (ADP-Glo kinase assay). In kind it is biochemical. On the procedure: An in vitro kinase assay of MEK1 was performed using ADP-Glo kinase assay (Promega, Madison, WI, USA) according to the manufacturer’s protocol. […] Reactions were stopped by adding 5 µL of ADP-Glo reagent to each well. After incubating at 22 °C for 40 min, 10 µL of the kinase detection reagent was added and the plates were incubated for another 30 min at 22 °C in the dark. The reaction mixture was analysed by EnSpire (PerkinElmer, Waltham, MA, USA). U0126 was used as the positive control for MEK1 inhibition.

The test system of the next assay is HepG2 cells. Put plainly: Cell death inhibition assay. The assay is classed as cell-based, human. The note with it: 10g 10 µM in combination with Z-VAD-FMK, 24 h. On the procedure:
Figure 6. Compound 10g induced oncosis and apoptosis of HepG2 cells. (a) PD150606 and Z-VAD-FMK partially reversed compound 10g-induced cell death. HepG2 cells were incubated with PD150606, Z-VAD-FMK or Necrostatin-1 at indicated concentration for 24 h alone or in combination with compound 10g at indicated concentration for 24 h. (b) Compound 10g induced the degradation of α-tubulin and β-actin, and activated oncosis marker calpain-1 autolysis from the 80 kDa event to 76 kDa event in western blot analysis. *, p < 0.01; **, p < 0.01; #, p < 0.01; &, p < 0.001. (c) Compound 10g induced the upregulation of apoptotic protein Bax, caspase-3, caspase-9 and plasmic cytochrome c levels, and the downregulation of antiapoptotic protein Bcl-2 level. *, p < 0.001; **, p < 0.01; #, p < 0.01; and p < 0.01.

The next assay has as its system MEK1/2. More on the design: method as in PMID 21245089. Particulars: cited from earlier work.

This is an account of results in publication PMC6720511, “Synthesis and biological evaluation of novel N-(piperazin-1-yl)alkyl-1H-dibenzo[a,c]carbazole derivatives of dehydroabietic acid as potential MEK inhibitors” (Journal of Enzyme Inhibition and Medicinal Chemistry, 2019).

Peptide text beside a SMILES is read from it. * marks the point of attachment. Cbz = O=C(OCc1ccccc1)*; CH2F = FC*

The IC50 is the concentration that inhibits the measured activity by half. On to `COC(=O)C1(C)CCCC2(C)c3ccc(C(C)C)cc3-c3c(c4ccccc4n3CCN3CCNCC3)C12` (stereo not shown) [Compound 6a, 2,3,4,4a,9,13c-Hexahydro-7-isopropyl-1,4a-dimethyl-9–(2-(piperazin-1-yl)ethyl) -1H-dibenzo[a,c]carbazole-1-carboxylic acid methyl ester], for which the IC50 in [1] is 8.75 ± 0.65 µM; in assay [2], < 10 µM; with Hep3B, 0.82 ± 0.08 µM; in the assay with HepG2 it was 2.28 ± 0.19 µM; with SMMC-7721, 5.2 ± 0.21 µM; at MEK1 [4] (recombinant GST-MEK1, GST-ERK2, 10 µM ATP, mean value ± SD, read-out: MEK1 inhibitory activity IC50 value) it was 13.2 ± 0.73 µM. Moreover, the “MEK1 inhibitory activity in preliminary screening (in words)” value at MEK1 [3] is “moderate inhibitory activity”. On MEK1 [4], the “MEK1 inhibitory activity (in words)” value is given as “weak MEK1 inhibitory activity”.

With `COC(=O)C[C@H](NC(=O)[C@H](C)NC(=O)[C@@H](NC(=O)OCc1ccccc1)C(C)C)C(=O)CF` [Z-VAD-FMK] (Cbz-Val-Ala-Asp(OMe)-CH2F), the “relative cell viability of HepG2 cells treated with 10g plus inhibitor” value in the assay with HepG2 cells was determined as 16.53%.

In the case of `CC(=O)Nc1cccc(-n2c(=O)n(C3CC3)c(=O)c3c(Nc4ccc(I)cc4F)n(C)c(=O)c(C)c32)c1` [trametinib], in the assay with MEK1/2, the IC50 was 0.0007 to 0.0009 µM.
